Four compounds from PubChem BioAssay AID1259407 (Chemical Carcinogenesis Research Information System (CCRIS), 2018) can be followed below.

This data set deals with CCRIS mutagenicity, Ames/micronucleus/aberration tests. Nature of the data set: CCRIS mutagenicity studies.
[1] abbreviates: Test System: AMES SALMONELLA TYPHIMURIUM, Strain/Indicator: TA98, Metabolic Activation: NONE, Method: PREINCUBATION
Setting [2] is: Test System: AMES SALMONELLA TYPHIMURIUM, Strain/Indicator: TA100, Metabolic Activation: NONE, Method: PREINCUBATION
Where [3] appears, read: Test System: AMES SALMONELLA TYPHIMURIUM, Strain/Indicator: TA1535, Metabolic Activation: NONE, Method: PREINCUBATION
Setting [4] is: Test System: AMES SALMONELLA TYPHIMURIUM, Strain/Indicator: TA1537, Metabolic Activation: NONE, Method: PREINCUBATION
[5] abbreviates: Test System: AMES SALMONELLA TYPHIMURIUM, Strain/Indicator: TA1537, Metabolic Activation: NONE, Method: STANDARD PLATE.

Active and inactive are the calls of the source. The rule behind the calls is not given here.

For the compound `CN(C)CCO`, the mutagenic call by setting is: (Test System: AMES SALMONELLA TYPHIMURIUM, Strain/Indicator: TA97, Metabolic Activation: HAMSTER, LIVER, AROCLOR 1254 (10 OR 30%), Method: PREINCUBATION) “inactive; negative”; (Test System: AMES SALMONELLA TYPHIMURIUM, Strain/Indicator: TA97, Metabolic Activation: NONE, Method: PREINCUBATION) “inactive; negative”; (Test System: AMES SALMONELLA TYPHIMURIUM, Strain/Indicator: TA97, Metabolic Activation: RAT, LIVER, S-9, AROCLOR 1254 (10 OR 30%), Method: PREINCUBATION) “inactive; negative”; (Test System: AMES SALMONELLA TYPHIMURIUM, Strain/Indicator: TA98, Metabolic Activation: HAMSTER, LIVER, S-9, AROCLOR 1254 (10%), Method: PREINCUBATION) “inactive; negative”; (Test System: AMES SALMONELLA TYPHIMURIUM, Strain/Indicator: TA98, Metabolic Activation: HAMSTER, LIVER, S-9, AROCLOR 1254 (30%), Method: PREINCUBATION) “inactive; negative”; under setting [1], “inactive; negative”. The mutagenic call is “inactive; negative” (Test System: AMES SALMONELLA TYPHIMURIUM, Strain/Indicator: TA98, Metabolic Activation: NONE, Method: STANDARD PLATE); “inactive; negative” (Test System: AMES SALMONELLA TYPHIMURIUM, Strain/Indicator: TA98, Metabolic Activation: RAT, LIVER, S-9, AROCLOR 1254 (10%), Method: PREINCUBATION); “inactive; negative” (Test System: AMES SALMONELLA TYPHIMURIUM, Strain/Indicator: TA98, Metabolic Activation: RAT, LIVER, S-9, AROCLOR 1254 (30%), Method: PREINCUBATION); “inactive; negative” (Test System: AMES SALMONELLA TYPHIMURIUM, Strain/Indicator: TA98, Metabolic Activation: RAT, LIVER, S-9, AROCLOR 1254, Method: STANDARD PLATE); “inactive; negative” (Test System: AMES SALMONELLA TYPHIMURIUM, Strain/Indicator: TA100, Metabolic Activation: HAMSTER, LIVER, S-9, AROCLOR 1254 (10%), Method: PREINCUBATION); “inactive; negative” (Test System: AMES SALMONELLA TYPHIMURIUM, Strain/Indicator: TA100, Metabolic Activation: HAMSTER, LIVER, S-9, AROCLOR 1254 (30%), Method: PREINCUBATION). Also, the mutagenic call reads like this: under setting [2], “inactive; negative”; (Test System: AMES SALMONELLA TYPHIMURIUM, Strain/Indicator: TA100, Metabolic Activation: NONE, Method: STANDARD PLATE) “inactive; negative”; (Test System: AMES SALMONELLA TYPHIMURIUM, Strain/Indicator: TA100, Metabolic Activation: RAT, LIVER, S-9, AROCLOR 1254 (10%), Method: PREINCUBATION) “inactive; negative”; (Test System: AMES SALMONELLA TYPHIMURIUM, Strain/Indicator: TA100, Metabolic Activation: RAT, LIVER, S-9, AROCLOR 1254 (30%), Method: PREINCUBATION) “inactive; negative”; (Test System: AMES SALMONELLA TYPHIMURIUM, Strain/Indicator: TA100, Metabolic Activation: RAT, LIVER, S-9, AROCLOR 1254, Method: STANDARD PLATE) “inactive; negative”; (Test System: AMES SALMONELLA TYPHIMURIUM, Strain/Indicator: TA1535, Metabolic Activation: HAMSTER, LIVER, S-9, AROCLOR 1254 (10%), Method: PREINCUBATION) “inactive; negative”. In addition, the mutagenic call was “inactive; negative” (Test System: AMES SALMONELLA TYPHIMURIUM, Strain/Indicator: TA1535, Metabolic Activation: HAMSTER, LIVER, S-9, AROCLOR 1254 (30%), Method: PREINCUBATION); “inactive; negative” under setting [3]; “inactive; negative” (Test System: AMES SALMONELLA TYPHIMURIUM, Strain/Indicator: TA1535, Metabolic Activation: NONE, Method: STANDARD PLATE); “inactive; negative” (Test System: AMES SALMONELLA TYPHIMURIUM, Strain/Indicator: TA1535, Metabolic Activation: RAT, LIVER, S-9, AROCLOR 1254 (10%), Method: PREINCUBATION); “inactive; negative” (Test System: AMES SALMONELLA TYPHIMURIUM, Strain/Indicator: TA1535, Metabolic Activation: RAT, LIVER, S-9, AROCLOR 1254 (30%), Method: PREINCUBATION); “inactive; negative” (Test System: AMES SALMONELLA TYPHIMURIUM, Strain/Indicator: TA1535, Metabolic Activation: RAT, LIVER, S-9, AROCLOR 1254, Method: STANDARD PLATE). Besides, the mutagenic call (Test System: AMES SALMONELLA TYPHIMURIUM, Strain/Indicator: TA1537, Metabolic Activation: HAMSTER, LIVER, S-9, AROCLOR 1254 (10%), Method: PREINCUBATION) was “inactive; negative”; the mutagenic call (Test System: AMES SALMONELLA TYPHIMURIUM, Strain/Indicator: TA1537, Metabolic Activation: HAMSTER, LIVER, S-9, AROCLOR 1254 (30%), Method: PREINCUBATION) was “inactive; negative”; the mutagenic call under setting [4] is “inactive; negative”; the mutagenic call under setting [5] is “inactive; negative”; the mutagenic call (Test System: AMES SALMONELLA TYPHIMURIUM, Strain/Indicator: TA1537, Metabolic Activation: RAT, LIVER, S-9, AROCLOR 1254 (10%), Method: PREINCUBATION) was “inactive; negative”; the mutagenic call (Test System: AMES SALMONELLA TYPHIMURIUM, Strain/Indicator: TA1537, Metabolic Activation: RAT, LIVER, S-9, AROCLOR 1254 (30%), Method: PREINCUBATION) is “inactive; negative”. Besides, the mutagenic call (Test System: AMES SALMONELLA TYPHIMURIUM, Strain/Indicator: TA1537, Metabolic Activation: RAT, LIVER, S-9, AROCLOR 1254, Method: STANDARD PLATE) is “inactive; negative”; the mutagenic call (Test System: AMES SALMONELLA TYPHIMURIUM, Strain/Indicator: TA1538, Metabolic Activation: NONE, Method: STANDARD PLATE) is “inactive; negative”; the mutagenic call (Test System: AMES SALMONELLA TYPHIMURIUM, Strain/Indicator: TA1538, Metabolic Activation: RAT, LIVER, S-9, AROCLOR 1254, Method: STANDARD PLATE) was “inactive; negative”; the mutagenic call (Test System: CHINESE HAMSTER OVARY, Strain/Indicator: CHO-K1-BH4, Metabolic Activation: NONE) was “inactive; negative”; the mutagenic call (Test System: CHINESE HAMSTER OVARY, Strain/Indicator: CHO-K1-BH4, Metabolic Activation: RAT, LIVER, S-9, AROCLOR 1254) was “inactive; negative”.

With `Cc1ccc2cc3c4c(ccc3c3c2c1CC3)C=C[C@H](O)[C@H]4O`, the mutagenic call (Test System: CHINESE HAMSTER V-79, Strain/Indicator: V-79/8-AZAGUANINE, Metabolic Activation: NONE, Method: STANDARD PLATE) is “active; positive”.

For `CNC(=O)C[C@@H](N)C(=O)N[C@@H](C(=O)N[C@@H]1C(=O)N2[C@@H]1SC(C)(C)[C@@H]2C(=O)O)c1ccc(O)cc1`, the mutagenic call was “inactive; negative” under setting [1]; “inactive; negative” (Test System: AMES SALMONELLA TYPHIMURIUM, Strain/Indicator: TA98, Metabolic Activation: RAT, LIVER, S-9, PHENOBARBITAL AND BENZOFLAVONE, Method: PREINCUBATION); “inactive; negative” under setting [2]; “inactive; negative” (Test System: AMES SALMONELLA TYPHIMURIUM, Strain/Indicator: TA100, Metabolic Activation: RAT, LIVER, S-9, PHENOBARBITAL AND BENZOFLAVONE, Method: PREINCUBATION); “inactive; negative” under setting [3]; “inactive; negative” (Test System: AMES SALMONELLA TYPHIMURIUM, Strain/Indicator: TA1535, Metabolic Activation: RAT, LIVER, S-9, PHENOBARBITAL AND 5,6 BENZOFLAVONE, Method: PREINCUBATION). For the same compound, the mutagenic call is “inactive; negative” under setting [4]; “inactive; negative” (Test System: AMES SALMONELLA TYPHIMURIUM, Strain/Indicator: TA1537, Metabolic Activation: RAT, LIVER, S-9, PHENOBARBITAL AND 5,6 BENZOFLAVONE, Method: PREINCUBATION); “inactive; negative” (Test System: AMES SALMONELLA TYPHIMURIUM, Strain/Indicator: TA1538, Metabolic Activation: NONE, Method: PREINCUBATION); “inactive; negative” (Test System: AMES SALMONELLA TYPHIMURIUM, Strain/Indicator: TA1538, Metabolic Activation: RAT, LIVER, S-9, PHENOBARBITAL AND 5,6 BENZOFLAVONE, Method: PREINCUBATION); “inactive; negative” (Test System: E. COLI, Strain/Indicator: WP2 UVRA, Metabolic Activation: NONE, Method: PREINCUBATION); “inactive; negative” (Test System: E. COLI, Strain/Indicator: WP2 UVRA, Metabolic Activation: RAT, LIVER, S-9, PHENOBARBITAL AND 5,6 BENZOFLAVONE, Method: PREINCUBATION).

Take `CN(C)CCNC(=O)c1cccc2cc3ccccc3nc12`: the mutagenic call under setting [5] was “active; positive”.
